From publication PMC12586598, “A novel long-acting C5a-blocking cyclic peptide prevents sepsis-induced organ dysfunction via effective blockade of the inflammatory cascade” (Signal Transduction and Targeted Therapy, 2025)
Where a SMILES comes first, the peptide text is derived from it.

Experiments:
CLP-induced septic mice = assay: Endothelial injury biomarkers and capillary leakage in CLP mice; format: in vivo, mouse; details: 24 h post-CLP surgery
Protocol: To evaluate microvascular leakage in the murine abdominal cavity, the mice received 100 μg of Cp1 via intravenous administration one hour after CLP surgery. Subsequently, 200 μL of 0.25% (w/v) Evans blue dye was injected intravenously for permeability quantification. Twenty-four hours later, the plasma and peritoneal lavage fluid (PLF) of the mice were collected and subjected to spectrophotometric measurement at 620 nm. To exclude hemoglobin interference, the serum absorbance values were corrected via the following formula: corrected A620 = A620 − (A405 × 0.014).[40] Vascular permeability was quantified by the A620 ratio of PLF to serum. To assess capillary leakage in pulmonary tissues, human plasma albumin (HSA) (1 mg/75 μL) was injected intravenously after CLP surgery and Cp1 administration. Twenty-four hours later, the HSA in the bronchoalveolar lavage fluid (BALF) and plasma samples was quantified via a HAS ELISA Kit (Cusabio, Wuhan), and the lung permeability index was calculated as the ratio of the HAS in the BALF to that in the plasma.
The cecal ligation and puncture (CLP) model was established in male C57BL/6 mice (9-10 weeks old). Briefly, a midline laparotomy was performed to exteriorize the cecum under general anesthesia. The cecum was ligated at the distal three-quarters using sutures. Subsequently, a single through-and-through puncture was made in the ligated segment using a 22-gaμge needle, followed by small volume of fecal content was gentle extrusion. The cecum was then repositioned within abdominal cavity, and the laparotomy incision was closed in layers. All animals were administered 1 mL of sterile saline for postoperative fluid resuscitation. Sham-operated controls underwent identical surgical procedures without cecal ligation or puncture. In this work, mice received administration via intravenous injection 1 hour after CLP surgery. The animal mortality was determined by the presence of confirmed death. […] Blood samples were collected 24 hours after CLP-modeling for hematological analysis (Mindray BC-60R Vet) and biochemical analysis (Mindray BS-240 Vet, China), endothelial injury analysis (Njjcbio, Nanjing) and coagulation analysis (Legene, Beijing). Subsequently, mice were sacrificed to collect the main organs for morphological and pathological analysis.

[1] = tested on: human peripheral blood mononuclear cells (PBMCs); assay: RNA sequencing of C5a-stimulated PBMCs; format: cell-based; details: |log2FoldChange| ≥ 1, P < 0.05
Protocol: Human peripheral mononuclear cells were stimulated with 100 ng/mL of human C5a protein (MCE, China) or a complex of human C5a with Cp1 for 1 h. After RNA extraction, purification and library construction, the Next-Generation Sequencing (NGS) technology was used to perform paire-end (PE) sequencing based on Illumina sequencing platform in Bioprofile Biotechnology Co., Ltd (Shanghai, China). The expression of each gene was calculated and further subjected to differential expression analysis, enrichment analysis and cluster analysis.

in vitro = details: C57BL/6, mouse, plasma
Description: The peptides in the plasma were extracted with 15% TFA and quantified via reversed-phase high-performance liquid chromatography (HPLC) (Agilent 1260, USA).

normal mice = assay: Systemic safety evaluation in normal mice; format: in vivo; details: 100 μg/20 g i.v., 24 h
Protocol: The cytotoxic potential of cyclic-peptides was evaluated in HUVECs and RAW 264.7 cells. Cells were incubated with serially diluted Cp1 (1 pg-100 μg/mL) for 24 hours at 37°C in a 5% CO₂ humidified atmosphere, followed by cell viability assessment using CCK-8 kit (Dojindo, Japan). For systemic safety evaluation, whole blood samples were collected for hematological analysis, biochemistry analysis and inflammatory profiling analysis. Following euthanasia, major organs were harvested, fixed and processed for H&E staining.

PMNs = assay: C5a-triggered chemotaxis assay, PMNs (IncuCyte); format: cell-based, human; details: 10 ng to 1 μg per well, 24 h
Protocol: The chemotaxis assay in this study was monitored and quantified by the IncuCyte ZOOM® Live-Cell Imaging System. The y-axis label “total area normalized to initial area in each group” in Fig. 3k, m represent the ratio of the total cell area at each time point to the initial area (0 h) within the same field of view. A higher ratio indicates […] cell migration activity.
One hundred nanograms of human C5a protein (ACROBiosystems, Beijing, China) was preincubated with linear or cyclic peptides at the indicated concentrations (10 ng, 100 ng, or 1 μg) in 1640 complete culture medium for 30 min. PMNs isolated by flow cytometric sorting for chemotaxis assays were purchased from Oribiotech Co., Ltd. (Shanghai, China). A total of 1 × 10^4 cells were added to the upper chamber of 96-well cell chemotaxis plates (Sartorius, Germany) and allowed to migrate at 37 °C for 24 h. The chemotactic response of neutrophils toward C5a with or without C5a-blocking peptides was quantified and analyzed via an IncuCyte ZOOM® Live-Cell Imaging System (Sartorius, Germany). The chemotactic response of mouse neutrophils was assessed following the established protocol for PMNs.

human C5a = target: T1, human C5a (Homo sapiens, UniProt P01031); assay: SPR binding affinity assay, immobilized human C5a
T1 construct: human C5a (ACROBiosystems, Beijing, China); purchased ACROBiosystems
T1 sequence (P01031 678-751 limits assumed): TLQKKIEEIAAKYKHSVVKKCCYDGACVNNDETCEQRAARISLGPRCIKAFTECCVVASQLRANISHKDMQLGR
Protocol: Surface plasmon resonance (SPR) analysis was conducted using Biacore 2000 system (GE Healthcare, Germany) at 37°C in running buffer (20 mM Tris-HCl, pH 7.4, 150 mM NaCl, 5 mM KCl, 1 mM MgCl₂, 1 mM CaCl₂). The CM5 sensor chips (GE Healthcare) were activated with NHS/EDC, followed by immobilization of mouse C5a (ACROBiosystems, Beijing, China), human C5a (ACROBiosystems, Beijing, China), mouse C5 (ACROBiosystems, Beijing, China) or mouse C5a-desArg (MCE, Shanghai, China). The peptide-protein interactions were characterized using a concentration-gradient approach (low to high) with a continuous flow rate of 30 μL/min (150 s injection duration). Between analyte concentrations, the sensor surface was regenerated with 10 mM glycine-HCl (pH 2.0; 5 min treatment). Binding and dissociation constants were obtained by globally fitting the data to a 1:1 Langmuir binding model using a Biacore Insight evaluation software (Cytiva, USA).

For `CSCC[C@@H]1NC(=O)[C@@H]2CCCN2C(=O)[C@H](CCSC)NC(=O)[C@H](CO)NC(=O)[C@H](Cc2c[nH]cn2)NC(=O)CNC(=O)[C@H](CO)NC(=O)[C@H](Cc2ccccc2)NC(=O)[C@H](CCCNC(=N)N)NC(=O)[C@H](CCC(=O)O)NC(=O)[C@H](Cc2ccccc2)NC(=O)[C@H](C(C)C)NC1=O` [Cp1] (cyclo(HSMPMVFERFSG)), the “decrease of circulating E-selectin vs CLP group” value (CLP-induced septic mice; 100 μg/20 g) was 71%, the “decrease of circulating PAI-1 vs CLP group” value (CLP-induced septic mice; 100 μg/20 g) was 93% and the “decrease of circulating VCAM-1 vs CLP group” value (CLP-induced septic mice; 100 μg/20 g) was 100%. The “decrease of Evans blue leakage (PLF/Serum)” value (CLP-induced septic mice; vs untreated CLP group) was 54%, the “decrease of HAS leakage (BALF/Serum)” value (CLP-induced septic mice; vs untreated CLP group) was 83% and the “reduction in lung wet-to-dry weight ratio (W/D ratio)” value (CLP-induced septic mice; vs untreated CLP group) was 85%. For the same compound, the “DEGs downregulated after Cp1 preincubation” value [1] was 2235, the remaining at 24 h (in vitro) was greater than 95% and the “hepatorenal toxicity and tissue injury (blood biochemistry, histopathology)” value (normal mice) was “no hepatorenal toxicity or tissue injury”. The “suppression of C5a-driven recruitment of PMNs” value (PMNs) was “dose-dependently suppressed”, the kon (human C5a; pH 7.4, read-out: Ka vs hC5a (SPR)) was 53300 M⁻¹ s⁻¹ and the koff (human C5a; read-out: Kd (dissociation rate) vs hC5a (SPR)) was 0.395 s⁻¹.
